In PubChem BioAssay (NCI):
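All cell lines were grown in 96-well plates and treated with compound for 48 hours. Definition used: TGI = concentration required for complete inhibition of growth.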

What was measured:
Test in all cases: DTP human tumour cell line panel, 48 h
[1] = tested on: OVCAR-5 ovarian
[2] = tested on: SK-MEL-28 melanoma
[3] = tested on: HOP-92 NSCLC
[4] = tested on: UO-31 renal
[5] = tested on: DU-145 prostate
[6] = tested on: IGROV1 ovarian
[7] = tested on: ACHN renal
[8] = tested on: K-562 leukemia
[9] = tested on: HL-60(TB) leukemia
[10] = tested on: MDA-N
[11] = tested on: A498 renal
[12] = tested on: SF-268 CNS
[13] = tested on: UACC-62 melanoma
[14] = tested on: SR leukemia
[15] = tested on: SF-295 CNS
[16] = tested on: OVCAR-3 ovarian
[17] = tested on: 786-0 renal
[18] = tested on: RPMI-8226 leukemia
[19] = tested on: T-47D breast
[20] = tested on: SW-620 colon
[21] = tested on: NCI/ADR-RES ovarian
[22] = tested on: M14 melanoma
[23] = tested on: MALME-3M melanoma
[24] = tested on: A549 NSCLC
[25] = tested on: CCRF-CEM leukemia
[26] = tested on: SK-MEL-2 melanoma
[27] = tested on: UACC-257 melanoma
[28] = tested on: SK-MEL-5 melanoma
[29] = tested on: NCI-H226 lung
[30] = tested on: HCT-15 colon
[31] = tested on: CAKI-1 renal
[32] = tested on: U251 CNS
[33] = tested on: NCI-H23 lung
[34] = tested on: MCF7 breast
[35] = tested on: SNB-19 CNS
[36] = tested on: PC-3 prostate
[37] = tested on: HT29 colon
[38] = tested on: SK-OV-3 ovarian
[39] = tested on: RXF 393 renal
[40] = tested on: SN12C renal
[41] = tested on: MDA-MB-231 breast
[42] = tested on: HS 578T breast
[43] = tested on: COLO 205 colon
[44] = tested on: NCI-H460 lung
[45] = tested on: SF-539 CNS
[46] = tested on: MOLT-4 leukemia
[47] = tested on: LOX IMVI melanoma
[48] = tested on: OVCAR-4 ovarian
[49] = tested on: HCT-116 colon
[50] = tested on: NCI-H522 lung
[51] = tested on: KM12 colon
[52] = tested on: HCC-2998 colon
[53] = tested on: EKVX NSCLC
[54] = tested on: MDA-MB-435
[55] = tested on: OVCAR-8 ovarian
[56] = tested on: SNB-75 CNS
[57] = tested on: BT-549 breast
[58] = tested on: HOP-62 NSCLC
[59] = tested on: TK-10 renal
[60] = tested on: DLD-1 colon
[61] = tested on: SNB-78 CNS
[62] = tested on: LXFL 529 NSCLC
[63] = tested on: DMS 114 small cell lung
[64] = tested on: KM20L2 colon
[65] = tested on: M19-MEL melanoma
[66] = tested on: DMS 273 small cell lung

Compound `OC1c2ccccc2[C@@H]2[C@H]1[C@@H](c1ccccc1)C1(Cc3ccccc3C1O)[C@H]2c1ccccc1` (some centres not stated) has a TGI [1] of 23.2 µM, a TGI [2] of 22.1 µM and a TGI [3] of 12.6 µM. For the same compound, the TGI [4] was 20.3 µM, the TGI [5] was 22 µM and the TGI [6] was 16.6 µM. For the same compound, the TGI [7] was 16.7 µM, the TGI [8] was 10.7 µM and the TGI [9] was 4.47 µM. It also gave a TGI [10] of 13.7 µM, a TGI [11] of 23.6 µM and a TGI [12] of 24.1 µM. It also gave a TGI [13] of 20.6 µM, a TGI [14] of 4.49 µM and a TGI [15] of 18.9 µM. The TGI [16] was 6.27 µM, the TGI [17] was 8.28 µM and the TGI [18] was 9.89 µM. It also gave a TGI [19] of 22.5 µM, a TGI [20] of 17.4 µM and a TGI [21] of 16.6 µM. The TGI [22] was 17.1 µM, the TGI [23] was 17.9 µM and the TGI [24] was 14.2 µM. For the same compound, the TGI [25] was 12.7 µM, the TGI [26] was 20 µM and the TGI [27] was 11.1 µM. The TGI [28] was 18.2 µM, the TGI [29] was 19.4 µM and the TGI [30] was 15.1 µM. It also gave a TGI [31] of 22.8 µM, a TGI [32] of 14.1 µM and a TGI [33] of 18.4 µM. It also gave a TGI [34] of 4.7 µM, a TGI [35] of 26.5 µM and a TGI [36] of 8.87 µM. The TGI [37] was 6.87 µM, the TGI [38] was 23 µM and the TGI [39] was 4.83 µM. For the same compound, the TGI [40] was 3.29 µM, the TGI [41] was 20.3 µM and the TGI [42] was 25.1 µM. It also gave a TGI [43] of 3.62 µM, a TGI [44] of 10.2 µM and a TGI [45] of 26.6 µM. The TGI [46] was 8.57 µM, the TGI [47] was 7.04 µM and the TGI [48] was 17.4 µM. The TGI [49] was 14.5 µM, the TGI [50] was 14.2 µM and the TGI [51] was 8.25 µM. The TGI [52] was 4.58 µM, the TGI [53] was 19.2 µM and the TGI [54] was 7.73 µM. The TGI [55] was 15.3 µM, the TGI [56] was 21.5 µM and the TGI [57] was 28.6 µM. The TGI [58] was 22.9 µM and the TGI [59] was 29.7 µM.
In the case of `CC1=COC(=O)c2ccccc2N1`, the TGI [1] is reported as greater than 100 µM, the TGI [2] is reported as greater than 100 µM and the TGI [3] is reported as greater than 100 µM. It also gave a TGI [4] greater than 100 µM, a TGI [6] greater than 100 µM and a TGI [7] greater than 100 µM. For the same compound, the TGI [8] was greater than 100 µM, the TGI [9] was greater than 100 µM and the TGI [12] was greater than 100 µM. The TGI [13] was greater than 100 µM, the TGI [14] was greater than 100 µM and the TGI [15] was greater than 100 µM. For the same compound, the TGI [16] was greater than 100 µM, the TGI [17] was greater than 100 µM and the TGI [18] was greater than 100 µM. The TGI [20] was greater than 100 µM, the TGI [22] was greater than 100 µM and the TGI [23] was greater than 100 µM. It also gave a TGI [24] greater than 100 µM, a TGI [25] greater than 100 µM and a TGI [26] greater than 100 µM. It also gave a TGI [28] greater than 100 µM, a TGI [29] greater than 100 µM and a TGI [30] greater than 100 µM. For the same compound, the TGI [31] was greater than 100 µM, the TGI [60] was greater than 100 µM and the TGI [32] was greater than 100 µM. For the same compound, the TGI [33] was greater than 100 µM, the TGI [35] was greater than 100 µM and the TGI [37] was greater than 100 µM. For the same compound, the TGI [38] was greater than 100 µM, the TGI [39] was greater than 100 µM and the TGI [61] was greater than 100 µM. It also gave a TGI [40] greater than 100 µM, a TGI [43] greater than 100 µM and a TGI [44] greater than 100 µM. It also gave a TGI [45] greater than 100 µM, a TGI [62] greater than 100 µM and a TGI [47] greater than 100 µM. For the same compound, the TGI [63] was greater than 100 µM, the TGI [64] was greater than 100 µM and the TGI [48] was greater than 100 µM. It also gave a TGI [65] greater than 100 µM, a TGI [49] greater than 100 µM and a TGI [50] greater than 100 µM. For the same compound, the TGI [51] was greater than 100 µM, the TGI [52] was greater than 100 µM and the TGI [53] was greater than 100 µM. For the same compound, the TGI [66] was greater than 100 µM, the TGI [55] was greater than 100 µM and the TGI [56] was greater than 100 µM. The TGI [58] was greater than 100 µM and the TGI [59] was greater than 100 µM.
